Assay results reported in US20240390369A1, “METHODS FOR DETERMINING RESPONSIVENESS TO TYK2 INHIBITORS” (Bristol-Myers Squibb Company, priority 2021, published 2024).

System: patients with psoriatic arthritis
Assay: Phase 2 trial in psoriatic arthritis: ACR20 response at week 16
Type: in vivo, human
Conditions: for Odds Ratio for ACR20 response / Interaction Term for ACR20 response (ratio of odds ratios): week 16
Procedure: In a double-blind Phase 2 trial, 203 patients with psoriatic arthritis were randomized into three groups: deucravacitinib 6 mg once daily (N=70), deucravacitinib 12 mg once daily (N=67), or placebo (N=66). All subjects had active psoriatic arthritis according to the Classification Criteria for Psoriatic Arthritis (CASPAR); for active disease, these criteria required ≥3 tender joint count, ≥3 swollen joint count, and a C-reactive protein level above 3 mg/L. Other inclusion criteria included the following: presence of at least one plaque psoriasis lesion, and prior treatment failure with a non-biologic disease modifying anti-rheumatic drug, a non-steroidal anti-inflammatory drug, or a steroid. With respect to treatment history, approximately 70% of subjects had not received prior treatment with a biologic and were biologic naïve, while up to 30% of subjects had failed or had been intolerant to one TNF-inhibitor (TNF=Tumor necrosis factor, also known as TNFα). Randomization was stratified by prior TNF-inhibitor use (experienced/naïve) and body weight (<90 kg and ≥90 kg).
Clinical measures included the Psoriasis […] (PASI) score for skin psoriasis, American College of Rheumatology 20 (ACR20) response, Psoriatic Arthritis Disease Activity Score (PASDAS), Health Assessment Questionnaire-Disability Index (HAQ-DI), and Disease Activity Score 28 CRP (DAS28). To evaluate the predictive value of different protein measurements for the clinical response to deucravacitinib, baseline protein concentrations for responders and non-responders, as defined by ACR20 or PASI75 at week 16, were compared for each arm (placebo, 6 mg deucravacitinib once-daily, and 12 mg deucravacitinib once-daily).
Boxplots for baseline protein level by response were generated with a horizontal line indicating the median protein level at baseline. For each treatment arm, a two-sample t-test was performed to test whether mean baseline serum protein level was different in responders versus non-responders. A Wilcoxon rank sum test (Mann-Whitney U test) was also performed to evaluate the difference in median serum protein level between responders and non-responders. Further, barplots of ACR20 and PASI75 response rate at week 16 for each treatment arm were generated for all subjects (protein level high and protein level low subjects, dichotomized according to median baseline level). Line plots of ACR20 and PASI75 response rate over time for each treatment arm were generated for protein level high and protein level low groups. Logistic regression models were also fit to evaluate associations between baseline protein levels and clinical outcome.
For certain analyses described herein, patients were dichotomized by median values (e.g., of the proteins listed above or other measures) into “high” and “low” groups, such that the high group had values above the median and the low group had values less than or equal to the median.
In addition, logistic regression models were fit for response measures ACR20 and PASI75, to generate the odds ratio of each of the deucravacitinib treatment arms versus placebo, in BD2-high and BD2-low groups. The following logistic regression models were used: • For ACR20 response status: ACR20 (Y/N)=treatment arm+BD2 group+treatment arm*BD2 group+TNF-inhibitor use+baseline weight (continuous). • For PASI75 response status: PASI75 (Y/N)=treatment arm+BD2 group+treatment arm*BD2 group+TNF-inhibitor use+baseline weight (continuous). […] FIGS. 26-31 are forest plots summarizing the logistic regression results of these models (for BD2 and other biomarkers described herein); each “N,” for “Placebo” and “Deucrava,” represents the number of responders in that group. […]

## [2H]C([2H])([2H])NC(=O)c1nnc(NC(=O)C2CC2)cc1Nc1cccc(-c2ncn(C)n2)c1OC [deucravacitinib, 6-(cyclopropanecarboxamido)-4-((2-methoxy-3-(1-methyl-1H-1,2,4-triazol-3-yl)phenyl)amino)-N-(methyl-d3)pyridazine-3-carboxamide]
BD2 high (baseline above median 9,265 ng/L), 6 mg QD vs placebo
  Odds Ratio for ACR20 response: 4.54
BD2 high (baseline above median 9,265 ng/L), 12 mg QD vs placebo
  Odds Ratio for ACR20 response: 7.33
BD2 high, treatment arms combined vs placebo
  Odds Ratio for ACR20 response: 5.645
BD2 low, 6 mg QD vs placebo
  Odds Ratio for ACR20 response: 1.44
BD2 low, 12 mg QD vs placebo
  Odds Ratio for ACR20 response: 2.15
BD2 low, treatment arms combined vs placebo
  Odds Ratio for ACR20 response: 1.767
CRP high, 6 mg QD vs placebo
  Odds Ratio, ACR20 response status: 2.167
CRP high, 12 mg QD vs placebo
  Odds Ratio, ACR20 response status: 5.140
CRP high, treatment arms combined vs placebo
  Odds Ratio, ACR20 response status: 3.215
CRP low, 6 mg QD vs placebo
  Odds Ratio, ACR20 response status: 2.756
CRP low, 12 mg QD vs placebo
  Odds Ratio, ACR20 response status: 2.676
CRP low, treatment arms combined vs placebo
  Odds Ratio, ACR20 response status: 2.715
CRP-high, 6 mg QD vs placebo, adjusted for baseline DAS28
  Odds Ratio, ACR20 response status: 2.168
CRP-high, 12 mg QD vs placebo, adjusted for baseline DAS28
  Odds Ratio, ACR20 response status: 5.154
CRP-low, 6 mg QD vs placebo, adjusted for baseline DAS28
  Odds Ratio, ACR20 response status: 2.752
CRP-low, 12 mg QD vs placebo, adjusted for baseline DAS28
  Odds Ratio, ACR20 response status: 2.670
IL-17A high (baseline above median 0.575 ng/L), 6 mg QD vs placebo
  Odds Ratio for ACR20 response: 4.30
IL-17A high (baseline above median 0.575 ng/L), 12 mg QD vs placebo
  Odds Ratio for ACR20 response: 5.95
IL-17A high group, 6 mg QD and 12 mg QD vs placebo (FIG. 22)
  ACR20 response rate at week 16: higher in both 6 mg QD and 12 mg QD treatment arms compared to placebo in the IL-17-high group
IL-17A high, treatment arms combined vs placebo
  Odds Ratio for ACR20 response: 4.990
IL-17A low, 6 mg QD vs placebo
  Odds Ratio for ACR20 response: 1.39
IL-17A low, 12 mg QD vs placebo
  Odds Ratio for ACR20 response: 2.14
IL-17A low, treatment arms combined vs placebo
  Odds Ratio for ACR20 response: 1.723
IL-19-high versus IL-19-low group (FIG. 15)
  ACR20 response rate at week 16: a much more pronounced treatment effect (indicating a dose response effect of deucravacitinib) was observed in the IL-19-high group than in the IL-19-low group
IL-19 high (baseline above median 36 ng/L), 6 mg QD vs placebo
  Odds Ratio for ACR20 response: 4.68
IL-19 high (baseline above median 36 ng/L), 12 mg QD vs placebo
  Odds Ratio for ACR20 response: 11.44
IL-19 high, treatment arms combined vs placebo
  Odds Ratio for ACR20 response: 6.679
IL-19 low, 6 mg QD vs placebo
  Odds Ratio for ACR20 response: 1.41
IL-19 low, 12 mg QD vs placebo
  Odds Ratio for ACR20 response: 1.56
IL-19 low, treatment arms combined vs placebo
  Odds Ratio for ACR20 response: 1.487
Adjusted for baseline DAS28, 6 mg QD vs placebo: BD2-high versus BD2-low
  Interaction Term for ACR20 response (ratio of odds ratios): 3.06
Adjusted for baseline DAS28, 6 mg QD vs placebo: IL-17A-high versus IL-17A-low
  Interaction Term for ACR20 response (ratio of odds ratios): 3.08
Adjusted for baseline DAS28, 6 mg QD vs placebo: IL-19-high versus IL-19-low
  Interaction Term for ACR20 response (ratio of odds ratios): 3.32
Adjusted for baseline DAS28, 12 mg QD vs placebo: BD2-high versus BD2-low
  Interaction Term for ACR20 response (ratio of odds ratios): 3.42
Adjusted for baseline DAS28, 12 mg QD vs placebo: IL-17A-high versus IL-17A-low
  Interaction Term for ACR20 response (ratio of odds ratios): 2.75
Adjusted for baseline DAS28, All patients, 12 mg QD vs placebo
  Odds Ratio for ACR20 response: 3.62
Adjusted for baseline DAS28, BD2-high, 6 mg QD vs placebo
  Odds Ratio for ACR20 response: 4.42
Adjusted for baseline DAS28, BD2-low, 6 mg QD vs placebo
  Odds Ratio for ACR20 response: 1.44
Adjusted for baseline DAS28, BD2-low, 12 mg QD vs placebo
  Odds Ratio for ACR20 response: 2.14
Adjusted for baseline DAS28, IL-17A-high, 6 mg QD vs placebo
  Odds Ratio for ACR20 response: 4.27
Adjusted for baseline DAS28, IL-17A-high, 12 mg QD vs placebo
  Odds Ratio for ACR20 response: 5.92
Adjusted for baseline DAS28, IL-17A-low, 6 mg QD vs placebo
  Odds Ratio for ACR20 response: 1.39
Adjusted for baseline DAS28, IL-19-high, 6 mg QD vs placebo
  Odds Ratio for ACR20 response: 4.66
Adjusted for baseline DAS28, IL-19-high, 12 mg QD vs placebo
  Odds Ratio for ACR20 response: 11.47
Adjusted for baseline DAS28, IL-19-low, 6 mg QD vs placebo
  Odds Ratio for ACR20 response: 1.40
Adjusted for baseline DAS28, IL-19-low, 12 mg QD vs placebo
  Odds Ratio for ACR20 response: 1.56
Treatment arms combined vs placebo: BD2 high versus BD2 low
  Interaction Term for ACR20 response (ratio of odds ratios): 3.195
Treatment arms combined vs placebo: CRP high versus CRP low
  Interaction Term: treatment arm*CRP group, ACR20: 1.184
Treatment arms combined vs placebo: IL-17A high versus IL-17A low
  Interaction Term for ACR20 response (ratio of odds ratios): 2.886
Treatment arms combined vs placebo: IL-19 high versus IL-19 low
  Interaction Term for ACR20 response (ratio of odds ratios): 4.491
